The text below walks through data of ChEMBL document CHEMBL1146896, “Synthesis and monoamine transporter affinity of 2beta-carbomethoxy-3beta-(4'-p-substituted phenyl)-piperidine analogs of cocaine” (Bioorg Med Chem Lett, 2006).

Assay [1] has as its target Sodium-dependent dopamine transporter (Rattus norvegicus, UniProt P23977). The experiment in a line: Displacement of [3H]beta-CIT from DAT in rat caudate homogenate. (In general: In a radioligand displacement assay an active substance lowers the binding of a labelled ligand.)
In assay [2] the target is Monoamine transporters; Norepinephrine & serotonin (Rattus norvegicus) (UniProt P31652+Q9WTR4). The experiment in a line: Selectivity for SERT over NET. In kind it is protein assay.
Assay [3] concerns the target Norepinephrine transporter (Rattus norvegicus, UniProt Q9WTR4). The experiment in a line: Displacement of [3H]nisoxetine from NET in rat cerebral cortex. The class given is tissue-based.
Assay [4] has as its target Monoamine transporters; serotonin & dopamine (Rattus norvegicus) (UniProt P31652+P23977). The experiment in a line: Selectivity for SERT over DAT. The class given is protein assay.
For assay [5], the target named is Sodium-dependent serotonin transporter (Rattus norvegicus, UniProt P31652). The experiment in a line: Displacement of [3H]cyanoimipramine from SERT in rat cerebral cortex homogenate. In kind it is tissue-based.

Molecules are shown by their SMILES.

Norepinephrine transporter, sequence (Q9WTR4 whole entry): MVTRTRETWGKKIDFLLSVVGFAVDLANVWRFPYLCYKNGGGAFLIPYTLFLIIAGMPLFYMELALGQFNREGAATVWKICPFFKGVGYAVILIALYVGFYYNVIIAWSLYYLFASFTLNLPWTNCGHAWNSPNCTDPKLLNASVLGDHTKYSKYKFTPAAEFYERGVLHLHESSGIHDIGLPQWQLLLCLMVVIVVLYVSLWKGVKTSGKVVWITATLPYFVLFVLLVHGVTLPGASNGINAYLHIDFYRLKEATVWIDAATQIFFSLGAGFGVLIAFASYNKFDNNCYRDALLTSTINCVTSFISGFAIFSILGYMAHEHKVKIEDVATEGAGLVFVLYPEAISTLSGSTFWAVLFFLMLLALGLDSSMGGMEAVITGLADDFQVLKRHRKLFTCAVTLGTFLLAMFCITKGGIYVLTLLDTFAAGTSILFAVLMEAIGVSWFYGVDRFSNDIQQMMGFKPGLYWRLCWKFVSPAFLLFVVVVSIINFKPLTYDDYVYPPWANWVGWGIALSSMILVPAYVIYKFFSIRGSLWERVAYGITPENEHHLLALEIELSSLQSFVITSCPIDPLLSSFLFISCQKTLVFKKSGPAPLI
Monoamine transporters; serotonin & dopamine (Rattus norvegicus), sequence (P23977 whole entry, looked up): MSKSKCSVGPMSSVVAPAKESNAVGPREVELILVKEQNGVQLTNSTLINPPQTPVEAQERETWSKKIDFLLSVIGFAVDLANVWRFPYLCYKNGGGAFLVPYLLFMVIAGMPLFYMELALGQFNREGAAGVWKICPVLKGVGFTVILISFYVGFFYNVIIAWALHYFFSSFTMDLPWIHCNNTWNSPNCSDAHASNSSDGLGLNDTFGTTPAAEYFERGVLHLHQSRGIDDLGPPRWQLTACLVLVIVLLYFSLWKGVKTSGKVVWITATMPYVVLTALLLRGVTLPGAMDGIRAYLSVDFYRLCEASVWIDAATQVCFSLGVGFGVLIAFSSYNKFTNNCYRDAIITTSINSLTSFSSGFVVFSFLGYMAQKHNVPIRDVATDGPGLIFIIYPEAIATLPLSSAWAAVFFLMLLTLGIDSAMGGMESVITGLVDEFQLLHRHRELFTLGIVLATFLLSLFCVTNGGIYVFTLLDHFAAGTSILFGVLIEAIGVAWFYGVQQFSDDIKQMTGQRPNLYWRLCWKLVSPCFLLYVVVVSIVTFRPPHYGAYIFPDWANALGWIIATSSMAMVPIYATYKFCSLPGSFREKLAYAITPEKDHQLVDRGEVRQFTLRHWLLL
Monoamine transporters; serotonin & dopamine (Rattus norvegicus), sequence (P31652 whole entry, looked up): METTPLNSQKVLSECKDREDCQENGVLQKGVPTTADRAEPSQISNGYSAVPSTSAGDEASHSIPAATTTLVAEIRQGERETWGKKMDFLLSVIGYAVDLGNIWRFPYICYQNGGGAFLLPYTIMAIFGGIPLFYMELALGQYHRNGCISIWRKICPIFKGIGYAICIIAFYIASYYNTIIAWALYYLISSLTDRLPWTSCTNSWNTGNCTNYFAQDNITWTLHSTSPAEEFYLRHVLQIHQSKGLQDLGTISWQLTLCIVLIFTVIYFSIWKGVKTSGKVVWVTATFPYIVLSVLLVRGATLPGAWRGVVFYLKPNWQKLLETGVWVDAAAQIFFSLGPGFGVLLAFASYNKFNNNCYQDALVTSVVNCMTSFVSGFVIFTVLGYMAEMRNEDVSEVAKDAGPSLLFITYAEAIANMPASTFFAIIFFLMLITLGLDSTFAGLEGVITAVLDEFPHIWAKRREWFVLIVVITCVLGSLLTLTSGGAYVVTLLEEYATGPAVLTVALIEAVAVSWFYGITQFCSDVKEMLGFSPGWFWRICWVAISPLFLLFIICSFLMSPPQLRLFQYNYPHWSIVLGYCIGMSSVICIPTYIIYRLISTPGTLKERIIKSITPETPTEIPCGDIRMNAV
Sodium-dependent dopamine transporter, sequence (P23977 whole entry): as the sequence (P23977 whole entry, looked up) above
Sodium-dependent serotonin transporter, sequence (P31652 whole entry): as the sequence (P31652 whole entry, looked up) above

The term Ki denotes a measure of affinity in units of concentration, obtained from inhibition or displacement. Low readings indicate a stronger hold on the target, high ones a looser hold on the target. As for `COC(=O)[C@@H]1CN(C)CC[C@@H]1c1ccc(C=O)cc1`, the Ki in assay [1] was more than 10 µM; in assay [3] it was more than 30 µM; in assay [5], 1.73 µM. Moreover, the Ratio Ki in assay [2] came to 17.3; in assay [4], 5.8.

Regarding `COC(=O)[C@@H]1CN(C)CC[C@@H]1c1ccc(-c2ccsc2)cc1`, the inhibitory constant (Ki) is 0.598 µM in assay [1], more than 10 µM in assay [3] and 0.0318 µM in assay [5]. For the same compound, the Ratio Ki is more than 3140 in assay [2] and 188 in assay [4].

Turning to `COC(=O)[C@H]1[C@@H](c2ccc(I)cc2)C[C@@H]2CC[C@H]1N2C`, the values for the Ki in assay [1] and in assay [3] were 0.00096 µM and 0.0028 µM, respectively. Besides, the Ratio Ki in assay [2] amounted to 6.1; in assay [4] it was 2.1.

For the compound `COC(=O)[C@@H]1CN(C)CC[C@@H]1c1ccc(/C=C\I)cc1`, the figures for the inhibition constant (Ki) in assay [1], in assay [3] and in assay [5] were 0.123 µM, more than 30 µM and 0.0079 µM, respectively. In addition, the results for the Ratio Ki in assay [2] and in assay [4] were more than 3800 and 15.6, respectively.

For the compound `COC(=O)[C@@H]1CN(C)CC[C@@H]1c1ccc(-c2cccs2)cc1`, the Ki is not below 5 µM in assay [1], more than 50 µM in assay [3] and 0.0908 µM in assay [5]. The results for the Ratio Ki in assay [2] and in assay [4] were more than 551 and more than 55, respectively.

Consider `COC(=O)[C@@H]1CN(C)CC[C@@H]1c1ccc(-c2nccs2)cc1` [listing 1 of 2 here], for which the values for the Ki in assay [3] and in assay [5] were more than 50 µM and more than 10 µM, respectively.

In the case of `COC(=O)[C@@H]1CN(C)CC[C@@H]1c1ccc(-c2nccs2)cc1` (racemic) [listing 1 of 2 here], the inhibition constant Ki in assay [1] was more than 10 µM; in assay [3] it was more than 20 µM; in assay [5], more than 5 µM.

As to `COC(=O)[C@@H]1CN(C)CC[C@@H]1c1ccc(-c2nccs2)cc1` (racemic) [listing 2 of 2 here], the values for the Ratio Ki in assay [2] and in assay [4] were 4 and 2, respectively.

In the case of `COC(=O)[C@@H]1CN(C)CC[C@@H]1c1ccc(-c2ccco2)cc1`, the Ki in assay [1] is 0.205 µM; in assay [3], more than 50 µM; in assay [5], 0.0185 µM. In addition, the Ratio Ki in assay [2] was more than 2700; in assay [4], 11.1.

As to `COC(=O)[C@@H]1CN(C)CC[C@@H]1c1ccc(I)cc1`, the Ki came to 0.195 µM in assay [1] and 0.167 µM in assay [5]. Further, the Ratio Ki amounted to 59.9 in assay [2] and 11.2 in assay [4].

`COC(=O)[C@@H]1CN(C)CC[C@@H]1c1ccc(-c2nccs2)cc1` [listing 2 of 2 here]: the Ratio Ki in assay [2] amounted to 5; in assay [4] it was 1.
